Activity calls are given as the source filed them. The calls are words filed in the database; no cut-off is given here.
Experiments:
HT-29 = assay: Growth inhibition of human HT-29 cells after 48 hrs by SRB assay; format: functional; conditions: HT-29, 48 h
HL-60(TB) = assay: Growth inhibition of human HL-60(TB) cells after 48 hrs by SRB assay; format: functional; conditions: HL-60, 48 h
K562 [1] = assay: Growth inhibition of human K562 cells after 48 hrs by SRB assay; format: functional; conditions: K562, 48 h
MOLT-4 = assay: Growth inhibition of human MOLT4 cells after 48 hrs by SRB assay; format: functional; conditions: MOLT-4, 48 h
RPMI-8226 = assay: Growth inhibition of human RPMI8226 cells after 48 hrs by SRB assay; format: functional; conditions: RPMI-8226, 48 h
SR = assay: Growth inhibition of human SR cells after 48 hrs by SRB assay; format: functional
A549 = assay: Growth inhibition of human A549 cells after 48 hrs by SRB assay; format: functional; conditions: A549, 48 h
EKVX = assay: Growth inhibition of human EKVX cells after 48 hrs by SRB assay; format: functional
HOP-62 = assay: Growth inhibition of human HOP62 cells after 48 hrs by SRB assay; format: functional; conditions: HOP-62, 48 h
HOP-92 = assay: Growth inhibition of human HOP92 cells after 48 hrs by SRB assay; format: functional; conditions: HOP-92, 48 h
NCI-H226 = assay: Growth inhibition of human NCI-H226 cells after 48 hrs by SRB assay; format: functional; conditions: NCI-H226, 48 h
NCI-H23 = assay: Growth inhibition of human NCI-H23 cells after 48 hrs by SRB assay; format: functional; conditions: NCI-H23, 48 h
NCI-H322M = assay: Growth inhibition of human NCI-H322M cells after 48 hrs by SRB assay; format: functional
NCI-H460 = assay: Growth inhibition of human NCI-H460 cells after 48 hrs by SRB assay; format: functional; conditions: NCI-H460, 48 h
NCI-H522 = assay: Growth inhibition of human NCI-H522 cells after 48 hrs by SRB assay; format: functional; conditions: NCI-H522, 48 h
COLO 205 = assay: Growth inhibition of human COLO205 cells after 48 hrs by SRB assay; format: functional; conditions: COLO 205, 48 h
HCC 2998 = assay: Growth inhibition of human HCC2998 cells after 48 hrs by SRB assay; format: functional; conditions: HCC 2998, 48 h
HCT-116 = assay: Growth inhibition of human HCT116 cells after 48 hrs by SRB assay; format: functional; conditions: HCT-116, 48 h
HCT-15 = assay: Growth inhibition of human HCT15 cells after 48 hrs by SRB assay; format: functional; conditions: HCT-15, 48 h
LOX IMVI = assay: Growth inhibition of human LOXIMVI cells after 48 hrs by SRB assay; format: functional
Malme-3M = assay: Growth inhibition of human MALME-3M cells after 48 hrs by SRB assay; format: functional
M14 = assay: Growth inhibition of human M14 cells after 48 hrs by SRB assay; format: functional; conditions: M14, 48 h
SK-MEL-2 = assay: Growth inhibition of human SK-MEL-2 cells after 48 hrs by SRB assay; format: functional; conditions: SK-MEL-2, 48 h
SK-MEL-28 = assay: Growth inhibition of human SK-MEL-28 cells after 48 hrs by SRB assay; format: functional; conditions: SK-MEL-28, 48 h
SK-MEL-5 = assay: Growth inhibition of human SK-MEL-5 cells after 48 hrs by SRB assay; format: functional; conditions: SK-MEL-5, 48 h
UACC-257 = assay: Growth inhibition of human UACC257 cells after 48 hrs by SRB assay; format: functional; conditions: UACC-257, 48 h
UACC-62 = assay: Growth inhibition of human UACC62 cells after 48 hrs by SRB assay; format: functional; conditions: UACC-62, 48 h
IGROV-1 = assay: Growth inhibition of human IGROV1 cells after 48 hrs by SRB assay; format: functional; conditions: IGROV-1, 48 h
OVCAR-3 = assay: Growth inhibition of human OVCAR-3 cells after 48 hrs by SRB assay; format: functional; conditions: OVCAR-3, 48 h
OVCAR-4 = assay: Growth inhibition of human OVCAR4 cells after 48 hrs by SRB assay; format: functional; conditions: OVCAR-4, 48 h
OVCAR-5 = assay: Growth inhibition of human OVCAR5 cells after 48 hrs by SRB assay; format: functional; conditions: OVCAR-5, 48 h
OVCAR-8 = assay: Growth inhibition of human OVCAR8 cells after 48 hrs by SRB assay; format: functional; conditions: OVCAR-8, 48 h
SK-OV-3 = assay: Growth inhibition of human SKOV3 cells after 48 hrs by SRB assay; format: functional; conditions: SK-OV-3, 48 h
786-0 = assay: Growth inhibition of human 786-0 cells after 48 hrs by SRB assay; format: functional; conditions: 786-0, 48 h
A498 = assay: Growth inhibition of human A498 cells after 48 hrs by SRB assay; format: functional; conditions: A498, 48 h
ACHN = assay: Growth inhibition of human ACHN cells after 48 hrs by SRB assay; format: functional
CAKI-1 = assay: Growth inhibition of human Caki1 cells after 48 hrs by SRB assay; format: functional; conditions: CAKI-1, 48 h
RXF 393 = assay: Growth inhibition of human […] cells after 48 hrs by SRB assay; format: functional; conditions: RXF 393, 48 h
SN12C = assay: Growth inhibition of human SN12C cells after 48 hrs by SRB assay; format: functional
TK-10 = assay: Growth inhibition of human TK10 cells after 48 hrs by SRB assay; format: functional; conditions: TK-10, 48 h
UO-31 = assay: Growth inhibition of human UO31 cells after 48 hrs by SRB assay; format: functional; conditions: UO-31, 48 h
PC-3 = assay: Growth inhibition of human PC3 cells after 48 hrs by SRB assay; format: functional; conditions: PC-3, 48 h
DU-145 = assay: Growth inhibition of human DU145 cells after 48 hrs by SRB assay; format: functional; conditions: DU-145, 48 h
MCF7 = assay: Growth inhibition of human MCF7 cells after 48 hrs by SRB assay; format: functional; conditions: MCF7, 48 h
NCI/ADR-RES = assay: Growth inhibition of human NCI/ADR-RES cells after 48 hrs by SRB assay; format: functional
MDA-MB-231 = assay: Growth inhibition of human MDA-MB-231 cells after 48 hrs by SRB assay; format: functional; conditions: MDA-MB-231, 48 h
[2] = Growth inhibition of human Hs 578T cells after 48 hrs by SRB assay; format: functional
MDA-MB-435 = assay: Growth inhibition of human MDA-MB-435 cells after 48 hrs by SRB assay; format: functional; conditions: MDA-MB-435, 48 h
BT-549 = assay: Growth inhibition of human BT549 cells after 48 hrs by SRB assay; format: functional; conditions: BT-549, 48 h
T47D = assay: Growth inhibition of human T47D cells after 48 hrs by SRB assay; format: functional
K562 [3] = assay: Cell cycle arrest in human K562 cells assessed as accumulation at S phase at 42.7 uM after 24 hrs using propidium iodide staining by flow cytometry; format: functional, cell-based
K562 [4] = assay: Cell cycle arrest in human K562 cells assessed as accumulation at G2/M phase at 42.7 uM after 24 hrs using propidium iodide staining by flow cytometry; format: functional, cell-based
KM12 = assay: Growth inhibition of human KM12 cells after 48 hrs by SRB assay; format: functional; conditions: KM12, 48 h
SW-620 = assay: Growth inhibition of human SW620 cells after 48 hrs by SRB assay; format: functional; conditions: SW-620, 48 h
SF-268 = assay: Growth inhibition of human SF268 cells after 48 hrs by SRB assay; format: functional; conditions: SF-268, 48 h
SF-295 = assay: Growth inhibition of human SF295 cells after 48 hrs by SRB assay; format: functional; conditions: SF-295, 48 h
SF-539 = assay: Growth inhibition of human SF539 cells after 48 hrs by SRB assay; format: functional; conditions: SF-539, 48 h
SNB-19 = assay: Growth inhibition of human SNB19 cells after 48 hrs by SRB assay; format: functional; conditions: SNB-19, 48 h
SNB-75 = assay: Growth inhibition of human SNB75 cells after 48 hrs by SRB assay; format: functional; conditions: SNB-75, 48 h
U-251 = assay: Growth inhibition of human U251 cells after 48 hrs by SRB assay; format: functional; conditions: U-251, 48 h

O=C(Nc1ccccc1OC(F)(F)F)Nc1n[nH]c2ccccc12
GI50 (HT-29): 26.1 µM
GI50 (HL-60(TB)): 17.9 µM
GI50 (K562 [1]): 42.7 µM
GI50 (MOLT-4): 59.1 µM
GI50 (RPMI-8226): 52 µM
GI50 (SR): 0.0489 µM
TGI (SR): 24 µM
CC50 (SR; read-out: LC50 (the source's name)): > 100 µM
GI50 (A549): 15.7 µM
GI50 (EKVX): 48.2 µM
GI50 (HOP-62): 19.6 µM
GI50 (HOP-92): 12.9 µM
GI50 (NCI-H226): 26.1 µM
GI50 (NCI-H23): 50 µM
GI50 (NCI-H322M): 81.6 µM
GI50 (NCI-H460): 15 µM
GI50 (NCI-H522): 33.9 µM
GI50 (COLO 205): 71.8 µM
GI50 (HCC 2998): 55.9 µM
GI50 (HCT-116): 16.2 µM
GI50 (HCT-15): 36.2 µM
GI50 (LOX IMVI): 22.5 µM
GI50 (Malme-3M): 76.9 µM
GI50 (M14): 22.5 µM
GI50 (SK-MEL-2): 81.4 µM
GI50 (SK-MEL-28): 42.2 µM
GI50 (SK-MEL-5): 28.7 µM
GI50 (UACC-257): 47.2 µM
GI50 (UACC-62): 31.7 µM
GI50 (IGROV-1): 4.59 µM
GI50 (OVCAR-3): 90.8 µM
GI50 (OVCAR-4): 37.7 µM
GI50 (OVCAR-5): 34.3 µM
GI50 (OVCAR-8): 29.6 µM
GI50 (SK-OV-3): > 100 µM
GI50 (786-0): 38.7 µM
GI50 (A498): > 100 µM
GI50 (ACHN): 31.1 µM
GI50 (CAKI-1): 31 µM
GI50 (RXF 393): 24.3 µM
GI50 (SN12C): 72.5 µM
GI50 (TK-10): 37.9 µM
GI50 (UO-31): 17.4 µM
GI50 (PC-3): 31.4 µM
GI50 (DU-145): 51.7 µM
GI50 (MCF7): 1.75 µM
GI50 (NCI/ADR-RES): 44.2 µM
GI50 (MDA-MB-231): 17.9 µM
GI50 [2]: 19.4 µM
GI50 (MDA-MB-435): 51.5 µM
GI50 (BT-549): 76.4 µM
GI50 (T47D): 37.5 µM
Activity (K562 [3]): Active
Activity (K562 [4]): Active
GI50 (KM12): 23.4 µM
GI50 (SW-620): 36.7 µM
GI50 (SF-268): 16.2 µM
GI50 (SF-295): 39 µM
GI50 (SF-539): 30.5 µM
GI50 (SNB-19): 78.3 µM
GI50 (SNB-75): 17.5 µM
GI50 (U-251): 31.1 µM

From ChEMBL document CHEMBL1152860, “Synthesis and antiproliferative activity of 3-amino-N-phenyl-1H-indazole-1-carboxamides” (2009)
